# Assay results as given in PMC5648829 (Scientific Reports, 2017).
# “And” between values parts separate entries of the source, which are not always exact repeats. Identical values can stand only once. Where a SMILES comes first, the peptide text is derived from it.
# Legend:
# [1] = target: T1, LTA4H (Homo sapiens, UniProt P09960); test: LTA4H aminopeptidase assay with surrogate substrate Ala-AMC; type: biochemical; design: Full-length LTA4H containing a N-terminal (His)6-tag; (His)6-tag (N, cleaved yes); (Gly3-Ser)3 spacer (N, cleaved yes); made in house; host or cells: E. coli BL21 (DE3) star; settings: for Effect on Ala-AMC hydrolysis: Table 1, whether compound increased or inhibited hydrolysis of Ala-AMC by the enzyme; for IC50: Table 2
# T1 sequence (P09960 1-611): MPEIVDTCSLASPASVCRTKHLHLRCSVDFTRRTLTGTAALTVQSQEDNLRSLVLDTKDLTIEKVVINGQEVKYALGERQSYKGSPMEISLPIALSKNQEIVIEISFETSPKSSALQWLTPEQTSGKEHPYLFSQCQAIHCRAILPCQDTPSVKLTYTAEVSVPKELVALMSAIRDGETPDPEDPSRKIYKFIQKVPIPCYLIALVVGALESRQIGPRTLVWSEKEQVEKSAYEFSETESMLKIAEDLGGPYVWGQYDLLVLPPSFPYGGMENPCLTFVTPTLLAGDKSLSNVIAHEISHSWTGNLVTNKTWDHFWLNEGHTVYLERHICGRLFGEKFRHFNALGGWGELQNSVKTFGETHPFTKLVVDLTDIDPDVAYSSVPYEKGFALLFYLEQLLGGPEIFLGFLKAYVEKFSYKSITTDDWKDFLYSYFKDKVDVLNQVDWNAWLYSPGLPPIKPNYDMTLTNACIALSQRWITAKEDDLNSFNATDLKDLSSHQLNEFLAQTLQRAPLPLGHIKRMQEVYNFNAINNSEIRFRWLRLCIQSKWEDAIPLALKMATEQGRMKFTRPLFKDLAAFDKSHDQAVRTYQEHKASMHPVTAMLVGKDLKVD
# Experimental: (§1) The LTA4H aminopeptidase assays were run using several surrogate substrates: Arg-Rho110-D-Pro (Arg-Rho, Biosyntan GmbH, Germany) or Arg-AMC (Bachem, Switzerland), Pro-AMC (Bachem, Switzerland) and Ala-AMC (Bachem, Switzerland). Assays were performed at RT in 1536-well plates in Tris buffer, pH 7.2 containing NaCl (100 mM), CaCl2 (2 mM), CHAPS (0.5%) and BSA (0.1%). […] The reaction was incubated between 1–2 h (depending on substrate) prior to reading the increase in fluorescence on an EnVision.
# [2] = target: T1, LTA4H; test: LTA4H aminopeptidase assay with surrogate substrate Pro-AMC; type: biochemical; design: Full-length LTA4H containing a N-terminal (His)6-tag; (His)6-tag (N, cleaved yes); (Gly3-Ser)3 spacer (N, cleaved yes); made in house; host or cells: E. coli BL21 (DE3) star
# Experimental: as §1
# [3] = target: T1, LTA4H; test: LTA4H aminopeptidase assay with surrogate substrate Arg-AMC; type: biochemical; design: Full-length LTA4H containing a N-terminal (His)6-tag; (His)6-tag (N, cleaved yes); (Gly3-Ser)3 spacer (N, cleaved yes); made in house; host or cells: E. coli BL21 (DE3) star
# Experimental: as §1
# [4] = target: T1, LTA4H; test: PGP peptidolysis assay by LC-MS/MS; type: biochemical; design: Full-length LTA4H containing a N-terminal (His)6-tag; (His)6-tag (N, cleaved yes); (Gly3-Ser)3 spacer (N, cleaved yes); made in house; host or cells: E. coli BL21 (DE3) star
# Experimental: The aminopeptidase activity of LTA4H was assessed with H-PGP-OH (Bachem, Switzerland) as substrate. Assays were performed at RT in black 384-well low volume plates (Greiner) and analyzed by LC-MS/MS. All compounds were tested as 8 point dose response curves in triplicates included on every plate. 3 µl of compound diluted in assay buffer (Tris (50 mM), NaCl (150 mM), CaCl2 (10 mM) at pH7.5) was transferred to the plate followed by 3 µl of enzyme solution (20 nM LTA4H in assay buffer). The enzyme compound mixture was incubated at room temperature for 15 min prior to the addition of 6 µl substrate solution (800 µM PGP in assay buffer). Upon addition of the substrate, the plate was placed on a shaker at 25 °C for 40 min. The reaction was stopped by addition of 12 µl formic acid (0.2% v/v). The final concentration of the enzyme in the assay was 5 nM, the PGP 400 µM and the compound concentration range was from 50000 nM to 3.2 nM. For peptide quantification, an HPLC instrument from Agilent Series 1290 (binary high pressure gradient system) with detectors UV, fluorescence and mass (single Quad) detectors was used. HPLC was done using an Atlantis T3 column (C18 100 × 2.1mm, […], 100 Å) with A: water (MQ) + 0.1% formic acid and B: acetonitrile + 0.1% formic acid: 0–0.3 min 0% buffer B, then increased to 100% buffer B at 0.31–0.65 min and again decreased to 0% buffer B at 0.66–0.70 min. Flow was set to 1.5 ml/min with start gradient pressure of 400 bar.
# [5] = PGP degradation assay in BALF ex-vivo (LC-MS/MS); type: in vitro ADME, mouse; settings: BALF of wt and LTA4H-KO mice, 24 h at 37 °C, compared with PBS
# Experimental: 200 µl of BALF were spiked with PGP and Ac-PGP at the final concentration of 10 nM. […] After incubation, samples were filtered (Amicon Ultra-0.5, Membrane Ultracel-30, PMNL 30 kD) by centrifugation (3 min at 10,000 × g). Filtered samples were transferred to vials for liquid chromatography tandem mass spectrometry (LC-MS/MS) analysis. The LC system consisted of an Acquity UPLC I-Class interfaced with a Xevo-TQS triple quadruple MS (Waters). […] PGP was monitored with MRM m/z transitions of 270.1 > 173.1 (quantifier) and 270.1 > 70.1 and 270.1 > 116.1 (qualifiers). Ac-PGP was monitored with m/z transitions of 312.2 > 112.1 (quantifier) and 312.2 > 116.1 and 312.2 > 140.1 (qualifiers).
# [6] = test system: human neutrophils; test: Human neutrophil shape change assay; type: cell-based; settings: isolated human neutrophils
# Experimental: Neutrophils were purified by Ficoll density gradient centrifugation from human blood and incubated with graded concentrations of PGP, Ac-PGP or the known neutrophil chemoattractant GROα in assay buffer containing BSA (0.1%) in PBS for 10 min at 37 °C, 5% CO2 and 90% humidity. Cells were then fixed and shape change analyzed by flow cytometry.
# [7] = test system: human neutrophils; test: Human neutrophil chemotaxis assay; type: cell-based
# Experimental: Purified human neutrophils were labeled with calcein-AM (Fluka, Buchs, Switzerland). Test compounds (PGP, Ac-PGP, RTR, and Ac-RTR) or IL-8 (Sigma) as positive chemoattractant control were diluted in RPMI containing BSA (0.1%) and added at graded concentrations into the wells of a 96-well ChemoTX plate (3.2 mm diameter, 5 µm pore size; NeuroProbe, Gaithersburg, MD). Labeled cells (50,000 per well) were added onto the filters above the wells that received the test compounds. Plates were incubated for 90 min at 37 °C. The filters were removed and fluorescence in the receiving wells was measured using a SpectraMAX Gemini EM instrument (Molecular Devices, Sunnyvale, CA; λex = 485 nm; λem = 538 nm). The chemotactic index was measured as the ratio of fluorescence in the test wells and in control (buffer only) wells.
# [8] = Table 1, read-out: IC50 Pro-AMC
# [9] = Table 1, average of minimum two biological replicates, read-out: IC50 Arg-AMC
# [10] = Table 2, read-out: IC50 Pro-AMC
# [11] = Table 2, read-out: IC50 Arg-AMC
Compound,Effect on Ala-AMC hydrolysis [1],"IC50 [2, 8] [nM]","IC50 [3, 9] [nM]",Ratio IC50 PGP/Arg-AMC ([4]; Table 1),"IC50 ([4]; Table 1, read-out: IC50 PGP) [nM]",other results
"COc1ccc(Cc2ccccc2)cc1 [4-MDM, 4-Methoxydiphenylmethane, reference compound]",increase,33600,10100,0.42,4220,–
"CC(=O)N1CCC[C@H]1C(=O)NCC(=O)N1CCC[C@H]1C(=O)O [Ac-PGP, N-acetly-Pro-Gly-Pro] (Ac-Pro-Gly-Pro-OH)",–,–,–,–,–,Ac-PGP stability in exudates [5]: remained as stable over 24 h at 37 °C as in PBS
"c1ccc(Oc2ccc(-c3c[nH]cn3)cc2)cc1 [Compound 6, 5-(4-phenoxyphenyl)-1H-imidazole]",–,–,–,–,–,IC50 [2]: 77 nM; IC50 [3]: 64 nM; IC50 [4]: 45 nM
OCc1ccc(Oc2nc3ccccc3s2)cc1 [Compound 14],–,–,–,–,–,"IC50 [1]: > 25000 nM; IC50 [2, 10]: 152 nM; IC50 [3, 11]: 225 nM; Ratio IC50 PGP/Arg-AMC ([4]; Table 2, fold selectivity): 0.34; IC50 ([4]; Table 2, read-out: IC50 PGP): 76 nM"
O=Cc1ncc(Oc2nc3ccccc3s2)cn1 [Compound 16],–,–,–,–,–,"IC50 [1]: > 25000 nM; IC50 [2, 10]: 15700 nM; IC50 [3, 11]: 2580 nM; IC50 ([4]; Table 2, read-out: IC50 PGP): 11200 nM"
"O=Cc1ccc(Oc2nc3ncccc3s2)cn1 [Compound 17, 5-(thiazolo[4,5-b]pyridin-2-yloxy)picolinaldehyde]",–,–,–,–,–,"IC50 [1]: 550 nM; IC50 [2, 10]: 560 nM; IC50 [3, 11]: 82 nM; Ratio IC50 PGP/Arg-AMC ([4]; Table 2, fold selectivity): 14 and 13.5; IC50 ([4]; Table 2, read-out: IC50 PGP): 1110 nM"
GROα: known chemokine and neutrophil chemoattractant,–,–,–,–,–,ED50 neutrophil shape change [6]: approximately 0.2 nM
IL-8: positive chemoattractant control,–,–,–,–,–,neutrophil chemotaxis ([7]; concentration as low as 10 nM): substantial chemotaxis
arginine-threonine-arginine [RTR],–,–,–,–,–,"neutrophil chemotaxis ([7]; graded concentrations up to mM range, 90 min at 37 °C): entirely negative"

# Now from value to compound, other results behind:
Effect on Ala-AMC hydrolysis [1],"IC50 [2, 8] [nM]","IC50 [3, 9] [nM]",Ratio IC50 PGP/Arg-AMC ([4]; Table 1),"IC50 ([4]; Table 1, read-out: IC50 PGP) [nM]",Compound,other results
increase,1030,970,0.40,390,"Nc1nc(-c2ccc(Cc3ccccc3)cc2)cs1 [ARM-1, 4-(4-benzylphenyl) thiazol-2-amine, reference compound]",–
increase,280,270,1.4,380,"c1ccc(Cc2ccc(-c3c[nH]cn3)cc2)cc1 [Compound 2, 4-(4-benzylphenyl)-1H-imidazole]",–
increase,1690,2870,0.49,1400,"Cn1cnc(-c2ccc(Oc3ccccc3)cc2)c1 [Compound 7, 1-methyl-4-(4-phenoxyphenyl)-1H-imidazole]",–
increase,1350,1300,1.44,1870,"Oc1cc(-c2ccc(Oc3ccccc3)cc2)n[nH]1 [Compound 8, 3-(4-phenoxyphenyl)-1H-pyrazol-5-ol]",–
increase,470,480,0.07,35,"c1ccc(Oc2ccc(-c3cc[nH]c3)cc2)cc1 [Compound 9, 3-(4-phenoxyphenyl)-1H-pyrrole]",–
